Data reported in publication PMC4261083, “An atypical residue in the pore of Varroa destructor GABA-activated RDL receptors affects picrotoxin block and thymol modulation” (Insect Biochemistry and Molecular Biology, 2014).
Where a chain is given by its changes, count along the chain named.

Legend:
Test in all cases: Thymol modulation of GABA concentration-response curves, two electrode voltage clamp in Xenopus oocytes
Type in all cases: cell-based
[1] = biological target: T1, N-7′H mutant Drosophila RDL receptor (Drosophila melanogaster, UniProt P25123, N292H); details: N-7′H RDL
T1 construct: expressed in transfected cells; host or cells: Xenopus laevis oocytes injected with cRNA
T1 sequence (P25123 45-606 N292H): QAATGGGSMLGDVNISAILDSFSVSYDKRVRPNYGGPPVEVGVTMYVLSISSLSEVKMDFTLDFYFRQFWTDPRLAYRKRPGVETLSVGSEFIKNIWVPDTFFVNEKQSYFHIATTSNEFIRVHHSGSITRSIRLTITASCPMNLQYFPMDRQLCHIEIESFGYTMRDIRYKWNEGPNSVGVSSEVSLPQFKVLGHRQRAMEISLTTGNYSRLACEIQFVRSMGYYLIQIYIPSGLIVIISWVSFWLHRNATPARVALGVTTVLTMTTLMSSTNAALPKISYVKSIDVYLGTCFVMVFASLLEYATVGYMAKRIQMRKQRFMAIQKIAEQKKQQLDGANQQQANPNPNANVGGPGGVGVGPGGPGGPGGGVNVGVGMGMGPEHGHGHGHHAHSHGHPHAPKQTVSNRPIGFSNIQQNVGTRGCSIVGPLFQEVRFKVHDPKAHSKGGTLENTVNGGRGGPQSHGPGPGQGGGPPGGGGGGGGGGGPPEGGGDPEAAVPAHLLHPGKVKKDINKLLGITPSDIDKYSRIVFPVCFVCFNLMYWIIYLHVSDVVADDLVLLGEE
Experimental: (§1) X. laevis oocyte-positive females were purchased from NASCO (Fort Atkinson, Wisconsin, USA) and maintained according to standard methods. Harvested stage V-VI Xenopus oocytes were washed in four changes of ND96 (96 mM NaCl, 2 mM KCl, 1 mM MgCl2, 1 mM CaCl2, 5 mM HEPES, pH 7.5), de-folliculated in 1.5 mg ml^−1 collagenase Type 1A for approximately 2 h, washed again in four changes of ND96 and stored in ND96 containing 2.5 mM sodium pyruvate, 0.7 mM theophylline and […].
(§2) Site directed mutagenesis was performed with the QuikChange mutagenesis kit (Agilent, La Jolla, CA). cRNA was transcribed in vitro from linearised pGEMHE cDNA template using the mMessage mMachine T7 Transcription kit (Ambion, Austin, Texas, USA). Stage V and VI oocytes were injected with 5 ng cRNA, incubated at 18 °C, and currents recorded 18–24 h post-injection.
(§3) Currents were recorded at 5 kHz and filtered at a frequency of 1 kHz. Micro-electrodes were fabricated from borosilicate glass (GC120TF-10, Harvard Apparatus, Edenbridge, Kent, UK) using a one stage horizontal pull (P-87, Sutter Instrument Company, California, USA) and filled with 3 M KCl. […] Oocytes were perfused with ND96 at a constant rate of 12 ml min^−1. Drug application was via a simple gravity fed system calibrated to run at the same rate.
(§4) Analysis and curve fitting was performed using Prism v5 (GraphPad Software, San Diego, California, USA). Concentration-response data for each oocyte was normalised to the maximum current for that oocyte. The mean and S.E.M. for a series of oocytes were fitted to the four parameter logistic equation in Prism.

[2] = biological target: T2, wild type Drosophila RDL receptor (Drosophila melanogaster, UniProt P25123); details: WT RDL
T2 construct: expressed in transfected cells; host or cells: Xenopus laevis oocytes injected with cRNA
T2 sequence (P25123 45-606): T1 sequence (P25123 45-606 N292H) with H248N
Experimental: as §1, §2, §3, §4

[3] = biological target: T3, A20′S mutant Drosophila RDL receptor (Drosophila melanogaster, UniProt P25123, A319S)
T3 construct: expressed in transfected cells; host or cells: Xenopus laevis oocytes injected with cRNA
T3 sequence (P25123 45-606 A319S): T1 sequence (P25123 45-606 N292H) with H248N, A275S
Experimental: as §1, §2, §3, §4

[4] = GABA EC50 control vs +100 μM thymol
[5] = GABA concentration-response in presence of 100 μM thymol

Cc1ccc(C(C)C)c(O)c1 [Thymol, thymol]
Effect of thymol on GABA-induced responses ([1]; 100 μM thymol, 1 μM GABA): enhance
Fold change in EC50 [1, 4]: 2.7
% Imax [1, 5]: 82 ± 4%
Effect of thymol on GABA-induced responses ([2]; 100 μM thymol, 1 μM GABA): enhance
Fold change in EC50 [2, 4]: 4.8
% Imax [2, 5]: 94 ± 3%
Effect of thymol on GABA-induced responses ([3]; 100 μM thymol, 1 μM GABA): enhance
Fold change in EC50 [3, 4]: 5.0
% Imax [3, 5]: 81 ± 6%
